Data set [1] in a line: Urine analyses by RP-HPLC after i.v. injection. Format: in vivo. Particulars: mice, urine from bladder at 1 h post-injection. As to the method: ^67Ga-DOTA-(L-Asp)14 was prepared according to a method described previously. ^67Ga-DOTA-(L-Asp)14 or ^67Ga-DOTA-(D-Asp)14 solution (370 kBq / 200 μL) was intravenously injected to 6-week-old male ddY mice. At 1 h post-injection, mice were sacrificed and their […] were taken from the bladders. After ultrafiltration (Microcon-30, Merck KGaA), the filtrate samples were analyzed by RP-HPLC at a flow rate of 1 mL/min with a gradient mobile phase from water containing 0.1% TFA to 20% methanol in water containing 0.1% TFA for 20 min.

Details of data set [2]: method as in PMID 24391942. The conditions noted are these: normal mice; cited from earlier work.

Structures are written as SMILES. Where a SMILES comes first, the peptide text is derived from it. The star is where a group is joined. DOTA = O=C(O)CN1CCN(CC(=O)O)CCN(CC(=O)*)CCN(CC(=O)O)CC1

`O=C(O)C[C@H](NC(=O)[C@H](CC(=O)O)NC(=O)[C@H](CC(=O)O)NC(=O)[C@H](CC(=O)O)NC(=O)[C@H](CC(=O)O)NC(=O)[C@H](CC(=O)O)NC(=O)[C@H](CC(=O)O)NC(=O)[C@H](CC(=O)O)NC(=O)[C@H](CC(=O)O)NC(=O)[C@H](CC(=O)O)NC(=O)[C@H](CC(=O)O)NC(=O)[C@H](CC(=O)O)NC(=O)[C@H](CC(=O)O)NC(=O)[C@H](CC(=O)O)NC(=O)CN1CCN(CC(=O)O)CCN(CC(=O)O)CCN(CC(=O)O)CC1)C(=O)O` [^67Ga-DOTA-(L-Asp)14, metal not drawn] ({DOTA}-DDDDDDDDDDDDDD-OH): the “Ratio of the intact complex in urine” value in data set [1] came out at 55.0 ± 13.9%. For the same compound, in data set [2], the “Accumulation in bone (in words)” value is on record as “high accumulation in bone” and the “Blood clearance (in words)” value is listed as “rapid blood clearance”.

These data come from paper PMC5656653, “Evaluation of Ga-DOTA-(D-Asp)n as bone imaging agents: D-aspartic acid peptides as carriers to bone” (Scientific Reports, 2017).
